Read-outs that look alike come from different tables or passages of the source.
Assays:
[1] = Equilibrium solubility, shake-flask method; assay type: physicochemical; details: 37 °C, thermodynamic from solid, read-out: Equilibrium solubility in buffer solution
Procedure: (§1) The shake-flask method was used to test the equilibrium solubility of NsTyr, NsTyr-2K, NsTyr-2Na in water at 37° C. […] The apparent lipid-water distribution coefficient log p of NsTyr-2K, NsTyr-2Na was respectively 1.512 and 1.477. Under different pHs, see Table 1 for the equilibrium solubility test data of NsTyr-2K, NsTyr-2Na; and see Table 2 for the apparent lipid-water distribution coefficient of NsTyr-2K and NsTyr-2Na.

[2] = Absorption kinetics after intragastric administration; assay type: in vivo; details: SD rats, oral 200 mg/kg
Procedure: Ten SD rats weighing 150-180 g were randomly divided into two groups, each comprising five, with males and females combined. After intragastric administration of 200 mg/kg of saline solution containing NsTyr and NsTyr-2K, the average blood concentration-time curve thereof was respectively shown in FIG. 2.

[3] = tested on: gerbil model with global ischemia reperfusion injury; assay: Neurobehavioral scores of acute cerebral ischemia reperfusion model; assay type: in vivo; details: ischemic model group 3.1+/−0.32
Source text: (§2) Taking N-stearoyl amino acid potassium NsTyr-2K as an example, a gerbil model with global ischemia reperfusion injury was used to assess the protective role of NsTyr-2K against neurobehavioral disorder caused by cerebral ischemia-reperfusion injury by examining the changing behavioral indexes such as spatial, learning and cognitive functions in the perspective of overall animals during passive dark avoidance test and Morris water maze test.

[4] = tested on: gerbil model with global ischemia reperfusion injury; assay: Dark avoidance test; assay type: in vivo; details: compared with the ischemia group; NsTyr-2K 15, 30, 60 mg/kg; nimotop positive control
Source text: as §2
Dark avoidance test was used to evaluate the effects of NsTyr-2K influence on animal learning and memory abilities.

obese mouse model [5] = assay: H&E staining of fat and liver tissue of obese mice; assay type: in vivo, C57BL/6 mice
Procedure: 2. Method: Epididymal fat and liver were fixed in 10% neutral formaldehyde solution for 48 h. After paraffin embedding they were made into […] of slices, and stained with hematoxylin-eosin (H&E staining). Light microscope was used to observe the size of fat cells, the structure of liver cells and adipose accumulation.

[6] = tested on: gerbil model with global ischemia reperfusion injury; assay: Morris water maze test (cerebral ischemia); assay type: in vivo
Source text: as §2
Up to day 4, for normal animals their latency fell to 29.8+/−12.55 s, and their swimming distance to 3,216.5+/−1,026.46 cm. From day 1 to day 2, there was no evident difference in the average latency before reaching the platform and the swimming distance prior to going onto the platform between the ischemia group of gerbils and any of the other groups. As training sessions increased, the latency and swimming distance of each group of gerbils before reaching the platform was shortened. The gap between the ischemia group and any of the other groups began to widen and reached the record on day 4.

obese mouse model [7] = assay: Administration test in obese mouse model (weight, food intake); assay type: in vivo, C57BL/6 mice; details: for obese mouse weight: four weeks
Procedure: 2. Method: 60 C57BL/6 mice (aged 3 weeks, male, with a weight of 8.3 g each) were adaptively fed with 12% kcal normal diet for one week, and randomly divided into 6 groups, each consisting of 10 mice. One group (ND) continued to be fed with normal diet, the rest five groups (HFD I˜V) were fed with 45% kcal high-fat diet.
In the whole test process the mice kept raised in the following environment: temperature: 23±3° C.; humidity: 50±5%; bright and dim alternating cycle: 12 h/12 h; freely available to diet and drinking water in the whole process.
2. Method: ND and HFD I were respectively taken as normal and high-fat diet blank control groups, and were treated with 0.5% sodium carboxymethyl cellulose solution (5 ml/kg/day); HFD II˜IV were taken as groups of recipients, and were treated with NST-2K (20, 60, 100 mg/kg/day); HFD V was taken as a positive control group, and treated with Orlistat (100 mg/kg/day). All the above drugs dissolved in aqueous solution of 0.5% sodium carboxymethyl cellulose and were administered. The administration remained four weeks. In each week average weight and food intake were kept in record until the phase of administration ended.

[8] = Apparent lipid-water distribution coefficient; assay type: physicochemical
Procedure: as §1

Acute toxicity test = details: mouse, in vivo; oral, Kunming mice
Source text: (§3) After oral administration of NsTyr-2K, the mice were weighed. […] However, their weight followed up rapidly as food intake recovered.
(§4) After 15-day administration of NsTyr-2K, the mouse organs (brain, heart, lung, liver and kidney) were studied to see if there was any change.
(§5) This means that mouse brain tissues had not been severely damaged under such dose, and that NsTyr-2K had high safety. Even so, it is necessary to conduct further long-term safety assessment of any possible side effect of NsTyr-2K on liver and hear in the following medicinal research and to precisely determine the amount of administration required.

Kunming mice = assay: Acute toxicity test; details: mouse, in vivo
Source text: as §3, §4, §5

[9] = both sexes, Sprague-Dawley (SD), rat, blood

For CCCCCCCCCCCCCCCCCC(=O)N[C@@H](Cc1ccc(O)cc1)C(=O)[O-].[K+] [NsTyr-2K, N-stearoyl tyrosine potassium salt], the solubility thermodynamic ([1]; aqueous buffer, pH 2.0) was 49.3 µg/mL, the solubility thermodynamic ([1]; aqueous buffer, pH 3.0) was 58.5 µg/mL and the solubility thermodynamic ([1]; aqueous buffer, pH 4.0) was 188 µg/mL. The solubility thermodynamic ([1]; aqueous buffer, pH 5.0) was 221 µg/mL, the solubility thermodynamic ([1]; aqueous buffer, pH 6.0) was 243 µg/mL and the solubility thermodynamic ([1]; aqueous buffer, pH 7.0) was 251 µg/mL. It also gave a solubility thermodynamic ([1]; aqueous buffer, pH 8.0) of 286 µg/mL, a solubility thermodynamic ([1]; aqueous buffer, pH 9.0) of 370 µg/mL and a solubility thermodynamic ([1]; pH 7.4, aqueous buffer) of 270 µg/mL. The “AUC multiplied, compared with NsTyr” value [2] was 30 times, the “half-life period compared with NsTyr” value [2] was “nearly doubled” and the “peak concentration Cmax multiplied, compared with NsTyr” value [2] was ~20 times. It also gave an AUC(0-inf) [2, 9] of 3690 ng·h/mL, an AUC(0-t) [2, 9] of 3490 ng·h/mL and a Cmax [2, 9] of 2400 ng/mL. For the same compound, the MRT last [2, 9] was 2.19 h, the Tmax [2, 9] was 0.6 h and the half-life [2, 9] was 2.9 h. For the same compound, the neurobehavioral score ([3]; 15 mg/kg) was 1.76+/−0.48, the neurobehavioral score ([3]; 30 mg/kg) was 1.25+/−0.31 and the “error counts within 5 min” value [4] was “much fewer error counts within 5 min”. The latency [4] was “much prolonged latency”, the “size of epididymal fat cells” value (obese mouse model [5]; HFD III, HFD IV (NST-2K 60, 100 mg/kg/day) and HFD V (Orlistat 100 mg/kg/day) vs HFD I) was “evidently smaller fat cells than HFD I” and the “fat accumulation in liver tissues” value (obese mouse model [5]; as the administration dose increased, vs HFD I) was “the accumulation began to ease”. For the same compound, the “size of epididymal fat cells” value (obese mouse model [5]; low-dose (20 mg/kg/day)) was “could not significantly shrink fat cells”, the “period before finding the underwater platform and swimming distance” value ([6]; 15 mg/kg, compared with the model group) was “no obvious difference” and the “time percentage and swimming distance percentage in the first quadrant (probe test)” value ([6]; day 5, platform removed, against ischemia group, NsTyr-2K 30 and 60 mg/kg, nimotop control) was “statistical difference”. For the same compound, the “period before finding the underwater platform and swimming distance” value ([6]; days 3 and 4, compared with the ischemia group, NsTyr-2K 30 and 60 mg/kg, nimotop positive control) was “a shortened period before finding the underwater platform and a shortened swimming distance”, the obese mouse weight (obese mouse model [7]; 100 mg/kg/day) was “can reduce obese mouse weight” and the “appetite (average daily food intake)” value (obese mouse model [7]; 4-week administration, high-fat diet groups) was “neither NST-2K nor Orlistat suppressed appetite”. For the same compound, the obese mouse weight (obese mouse model [7]; 20, 60 mg/kg/day) was “can inhibit weight gain in obese mice”, the logP [8] was 1.51 and the “Apparent lipid-water distribution coefficient Ko/w” value ([8]; buffer pH 2.0) was 76.020. For the same compound, the logP ([8]; buffer pH 2.0, read-out: Apparent lipid-water distribution coefficient LogP) was 1.88, the “Apparent lipid-water distribution coefficient Ko/w” value ([8]; buffer pH 3.0) was 30.571 and the logP ([8]; buffer pH 3.0, read-out: Apparent lipid-water distribution coefficient LogP) was 1.49. For the same compound, the “Apparent lipid-water distribution coefficient Ko/w” value ([8]; buffer pH 4.0) was 16.020, the logP ([8]; buffer pH 4.0, read-out: Apparent lipid-water distribution coefficient LogP) was 1.21 and the “Apparent lipid-water distribution coefficient Ko/w” value ([8]; buffer pH 5.0) was 21.934. For the same compound, the logP ([8]; buffer pH 5.0, read-out: Apparent lipid-water distribution coefficient LogP) was 1.34, the “Apparent lipid-water distribution coefficient Ko/w” value ([8]; buffer pH 6.0) was 28.935 and the logP ([8]; buffer pH 6.0, read-out: Apparent lipid-water distribution coefficient LogP) was 1.46. For the same compound, the “Apparent lipid-water distribution coefficient Ko/w” value ([8]; buffer pH 7.0) was 37.855, the logP ([8]; buffer pH 7.0, read-out: Apparent lipid-water distribution coefficient LogP) was 1.58 and the “Apparent lipid-water distribution coefficient Ko/w” value ([8]; buffer pH 7.4) was 16.674. The logP ([8]; buffer pH 7.4, read-out: Apparent lipid-water distribution coefficient LogP) was 1.22, the “Apparent lipid-water distribution coefficient Ko/w” value ([8]; buffer pH 8.0) was 13.797 and the logP ([8]; buffer pH 8.0, read-out: Apparent lipid-water distribution coefficient LogP) was 1.14. The “Apparent lipid-water distribution coefficient Ko/w” value ([8]; buffer pH 9.0) was 13.140, the logP ([8]; buffer pH 9.0, read-out: Apparent lipid-water distribution coefficient LogP) was 1.12 and the LD50 at 15 days (Acute toxicity test) was > 2000 mg/kg. The behavioral abnormality (Kunming mice) was “no evidence of behavioral abnormality except loss of appetite and weight” and the organ coefficient (Kunming mice) was “exerted certain influence upon mouse brain, heart and liver coefficients”.

Reference: US9914698B2, “Stearoyl amino acid salt and preparation method and application thereof” (Shanghai Jiaotong University School of Medicine, priority 2014, dated 2018)
